Measurements published in patent US20240116921A1, “LACTAM (HETERO)[…] DERIVATIVES AS INHIBITORS OF ERBB2” (EnLiven Therapeutics, Inc., priority 2020, published 2024).

How the values were obtained:
[1] = molecular target: Ba/F3 ERBB2 A775_G776insYVMA (Homo sapiens, UniProt P04626, DUP772-775, cells depend on it); assay: Cell viability assay, Ba/F3 ERBB2 A775_G776insYVMA; format: cell-based, mouse; settings: Ba/F3 ERBB2 YVMA cells, cell viability, 72 hours, CellTiter Glo; Table B5; read-out: Ba/F3 ERBB2 YVMA, IC50
Ba/F3 ERBB2 A775_G776insYVMA, sequence (P04626 with tags, fused parts or gaps DUP772-775): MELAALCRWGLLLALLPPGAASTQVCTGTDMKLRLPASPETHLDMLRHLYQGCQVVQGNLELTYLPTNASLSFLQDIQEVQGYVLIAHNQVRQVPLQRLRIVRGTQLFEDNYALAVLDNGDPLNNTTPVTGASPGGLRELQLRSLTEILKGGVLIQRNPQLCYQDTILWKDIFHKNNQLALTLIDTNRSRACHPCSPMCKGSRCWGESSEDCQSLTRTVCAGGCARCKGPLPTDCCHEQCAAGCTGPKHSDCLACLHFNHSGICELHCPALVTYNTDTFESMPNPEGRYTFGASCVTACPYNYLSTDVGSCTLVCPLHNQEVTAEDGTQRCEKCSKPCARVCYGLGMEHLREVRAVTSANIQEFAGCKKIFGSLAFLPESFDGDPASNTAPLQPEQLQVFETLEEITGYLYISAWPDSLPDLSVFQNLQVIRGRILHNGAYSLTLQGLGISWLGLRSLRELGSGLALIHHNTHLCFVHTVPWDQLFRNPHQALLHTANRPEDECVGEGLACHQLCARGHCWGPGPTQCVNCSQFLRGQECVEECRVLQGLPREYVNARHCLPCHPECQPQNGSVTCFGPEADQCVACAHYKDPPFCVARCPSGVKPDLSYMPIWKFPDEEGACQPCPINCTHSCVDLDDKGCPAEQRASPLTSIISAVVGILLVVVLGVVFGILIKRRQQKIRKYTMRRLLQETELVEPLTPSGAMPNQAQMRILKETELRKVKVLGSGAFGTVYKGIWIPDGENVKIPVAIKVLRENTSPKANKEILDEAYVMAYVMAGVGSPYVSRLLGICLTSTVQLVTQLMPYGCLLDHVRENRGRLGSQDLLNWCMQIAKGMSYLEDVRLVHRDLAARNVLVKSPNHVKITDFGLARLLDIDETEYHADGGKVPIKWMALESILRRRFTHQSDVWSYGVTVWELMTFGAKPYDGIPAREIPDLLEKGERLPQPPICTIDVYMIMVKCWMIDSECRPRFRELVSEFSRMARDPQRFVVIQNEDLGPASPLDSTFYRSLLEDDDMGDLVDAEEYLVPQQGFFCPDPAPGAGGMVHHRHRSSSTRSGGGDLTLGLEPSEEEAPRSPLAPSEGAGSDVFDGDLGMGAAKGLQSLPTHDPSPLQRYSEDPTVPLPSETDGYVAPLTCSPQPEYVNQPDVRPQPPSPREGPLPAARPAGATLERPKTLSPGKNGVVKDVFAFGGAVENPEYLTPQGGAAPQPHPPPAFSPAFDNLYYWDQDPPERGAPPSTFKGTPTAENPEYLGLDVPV
Summary of the method: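 Viability after 72 h compound treatment (37 °C, 5% CO2) was quantified by CellTiter-Glo luminescence of intracellular ATP, with sigmoidal dose-response fitting. Cells were retrovirally engineered Ba/F3 lines whose growth depends on the mutant human ERBB2 in place of IL-3, plated at 3000 per well.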

[2] = molecular target: T1, phosphorylated EGFR (pEGFR) (Homo sapiens, UniProt P00533); assay: Detection of phosphorylated EGFR (pEGFR) in EGF-stimulated A431 cells; format: cell-based; settings: A431 cells (10% FBS), 4 hours incubation, EGF 30 ng/mL 10 minutes, AlphaLISA
T1 construct: performed to measure phosphorylated EGFR levels using A431 cells (10% FBS); endogenous in cells; host or cells: A431
T1 sequence (P00533 25-1210): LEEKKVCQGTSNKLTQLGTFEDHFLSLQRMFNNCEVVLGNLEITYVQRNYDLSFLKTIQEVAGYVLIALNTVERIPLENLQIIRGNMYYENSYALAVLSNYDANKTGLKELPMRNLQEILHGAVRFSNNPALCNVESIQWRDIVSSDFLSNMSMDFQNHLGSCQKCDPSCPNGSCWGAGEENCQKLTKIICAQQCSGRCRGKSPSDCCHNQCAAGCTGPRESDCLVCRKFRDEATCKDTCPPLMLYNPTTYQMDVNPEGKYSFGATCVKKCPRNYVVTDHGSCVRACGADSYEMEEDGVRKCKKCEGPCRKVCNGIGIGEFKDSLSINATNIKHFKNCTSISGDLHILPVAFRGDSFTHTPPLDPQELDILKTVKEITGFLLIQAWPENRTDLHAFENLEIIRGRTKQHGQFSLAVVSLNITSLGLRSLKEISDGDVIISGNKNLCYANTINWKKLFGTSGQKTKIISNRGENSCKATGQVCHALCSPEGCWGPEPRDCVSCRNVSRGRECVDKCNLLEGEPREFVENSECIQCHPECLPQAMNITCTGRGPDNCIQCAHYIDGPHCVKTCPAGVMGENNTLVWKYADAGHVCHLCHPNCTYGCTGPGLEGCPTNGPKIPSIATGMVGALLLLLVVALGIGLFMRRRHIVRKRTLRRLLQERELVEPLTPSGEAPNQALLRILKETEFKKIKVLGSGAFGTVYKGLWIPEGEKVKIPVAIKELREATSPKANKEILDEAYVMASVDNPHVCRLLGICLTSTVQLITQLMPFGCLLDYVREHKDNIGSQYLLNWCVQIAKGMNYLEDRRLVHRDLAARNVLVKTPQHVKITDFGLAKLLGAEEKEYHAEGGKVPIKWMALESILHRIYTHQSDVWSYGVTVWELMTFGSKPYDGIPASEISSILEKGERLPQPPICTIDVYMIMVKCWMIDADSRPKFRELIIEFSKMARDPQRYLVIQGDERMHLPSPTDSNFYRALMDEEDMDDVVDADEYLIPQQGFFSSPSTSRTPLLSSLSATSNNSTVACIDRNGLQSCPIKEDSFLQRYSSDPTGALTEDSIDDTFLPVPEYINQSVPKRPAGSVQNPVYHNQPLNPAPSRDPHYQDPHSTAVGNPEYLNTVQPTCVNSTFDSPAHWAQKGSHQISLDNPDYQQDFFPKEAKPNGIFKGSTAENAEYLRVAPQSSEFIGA
Summary of the method: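 AlphaLISA read-out of EGFR phosphorylation after a 10-min EGF pulse (30 ng/mL final). A431 cells (10% FBS) had been exposed to compound for 4 h at 37 °C. IC50 was fitted from % inhibition normalised to DMSO and staurosporine control lysates.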

[3] = molecular target: T2, phosphorylated ERBB2 (pERBB2) (Homo sapiens, UniProt P04626); assay: Detection of phosphorylated ERBB2 (pERBB2) by ELISA in BT-474 cells; format: cell-based; settings: four hours incubation
T2 construct: endogenous in cells; host or cells: BT-474
T2 sequence (P04626 23-1255): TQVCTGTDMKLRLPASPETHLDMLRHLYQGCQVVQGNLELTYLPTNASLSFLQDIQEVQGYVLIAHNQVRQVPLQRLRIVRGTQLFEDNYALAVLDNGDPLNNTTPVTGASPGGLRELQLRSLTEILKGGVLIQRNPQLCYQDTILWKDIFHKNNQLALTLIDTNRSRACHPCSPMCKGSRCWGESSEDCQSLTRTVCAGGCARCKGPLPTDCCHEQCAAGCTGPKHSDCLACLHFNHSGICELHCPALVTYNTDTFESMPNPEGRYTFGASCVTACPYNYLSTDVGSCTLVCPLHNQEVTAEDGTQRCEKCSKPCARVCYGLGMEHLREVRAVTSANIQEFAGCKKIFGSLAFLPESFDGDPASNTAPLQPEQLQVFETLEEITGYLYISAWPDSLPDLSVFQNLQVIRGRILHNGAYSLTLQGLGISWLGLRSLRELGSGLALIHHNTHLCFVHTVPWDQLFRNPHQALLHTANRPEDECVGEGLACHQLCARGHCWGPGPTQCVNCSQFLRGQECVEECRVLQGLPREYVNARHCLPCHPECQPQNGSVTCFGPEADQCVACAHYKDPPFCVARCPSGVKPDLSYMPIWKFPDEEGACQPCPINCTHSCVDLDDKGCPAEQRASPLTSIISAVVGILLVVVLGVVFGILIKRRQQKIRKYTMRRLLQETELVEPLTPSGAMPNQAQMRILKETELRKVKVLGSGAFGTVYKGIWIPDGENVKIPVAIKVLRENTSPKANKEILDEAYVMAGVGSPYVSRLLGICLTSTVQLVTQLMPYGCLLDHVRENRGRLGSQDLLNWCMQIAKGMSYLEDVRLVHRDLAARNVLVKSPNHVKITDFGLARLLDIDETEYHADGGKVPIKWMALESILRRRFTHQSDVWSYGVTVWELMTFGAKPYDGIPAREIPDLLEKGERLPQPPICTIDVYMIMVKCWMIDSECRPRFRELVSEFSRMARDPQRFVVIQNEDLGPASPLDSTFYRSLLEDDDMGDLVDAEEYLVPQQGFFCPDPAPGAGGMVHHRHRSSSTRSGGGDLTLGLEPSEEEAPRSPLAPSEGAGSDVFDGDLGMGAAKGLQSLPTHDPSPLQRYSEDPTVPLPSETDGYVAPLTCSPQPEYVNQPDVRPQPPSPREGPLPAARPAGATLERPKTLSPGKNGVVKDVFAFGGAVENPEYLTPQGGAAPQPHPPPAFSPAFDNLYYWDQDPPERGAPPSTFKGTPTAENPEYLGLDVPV
Summary of the method: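 Phospho-ERBB2 in lysates was quantified by sandwich ELISA (A450, TMB) after 4 h compound exposure at 37 °C of BT-474 cells seeded at 2.0×10^4 per well. Compounds tested at 10 µM to 0.01 nM final in four-fold steps; activity normalized to DMSO (0.1%) high and cell-free low controls.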

SMILES | IC50 [2] [nM] | IC50 [3] [nM] | GI50 [1] [nM]
C=C1CCN(c2ccc3ncnc(Nc4ccc(Oc5ccc6c(c5)ncn6C)c(C)c4)c3c2)C1=O [Compound 27, 1-[4-({3-methyl-4-[(1-methyl-1,3-benzodiazol-5-yl)oxy]phenyl}amino)quinazolin-6-yl]-3-methylidenepyrrolidin-2-one] | 604 | 17.1 | 11.3
C=C1CCN(c2cc3c(Nc4ccc(Oc5ccn6ncnc6c5)c(C)c4)ncnc3cn2)C1=O [Compound 28, 1-(4-((4-([1,2,4]triazolo[1,5-a]pyridin-7-yloxy)-3-methylphenyl)amino)pyrido[3,4-d]pyrimidin-6-yl)-3-methylenepyrrolidin-2-one] | 355 | 7.77 | 5.32
C=C1C(=O)N(c2ccc3ncnc(Nc4ccc(Oc5ccn6ncnc6c5)c(C)c4)c3c2)CC1CO (stereo not drawn) [Compound 29, 4-(hydroxymethyl)-1-{4-[(3-methyl-4-{[1,2,4]triazolo[1,5-a]pyridin-7-yloxy}phenyl)amino]quinazolin-6-yl}-3-methylidenepyrrolidin-2-one] | 405 | 5.86 | 31.5
C=C1C(=O)N(c2ccc3ncnc(Nc4ccc(Oc5ccn6ncnc6c5)c(C)c4)c3c2)CC1CN(C)C (stereo not drawn) [Compound 30, 4-[(dimethylamino)methyl]-1-{4-[(3-methyl-4-{[1,2,4]triazolo [1,5-a]pyridin-7-yloxy}phenyl)amino]quinazolin-6-yl}-3-methylidenepyrrolidin-2-one; formic acid] | 68.4 | 12.3 | 17.4
C=C1C(=O)N(c2cc3c(Nc4ccc(Oc5ccn6ncnc6c5)c(C)c4)ncnc3cn2)C[C@@H]1C [Compound 31] | 117 | 15.9 | 3.78
C=C1C(=O)N(c2cc3c(Nc4ccc(Oc5ccn6ncnc6c5)c(C)c4)ncnc3cn2)C[C@H]1C [Compound 32, (4S)-4-methyl-1-{4-[(3-methyl-4-{[1,2,4]triazolo[1,5-a]pyridin-7-yloxy}phenyl)amino]pyrido[3,4-d]pyrimidin-6-yl}-3-methylidenepyrrolidin-2-one] | 8180 | 72.1 | 134
Cc1cc(Nc2ncnc3ccc(N4CC/C(=C\CN(C)C)C4=O)cc23)ccc1Oc1ccc2c(c1)ncn2C [Compound 33, (E)-3-(2-(dimethylamino)ethylidene)-1-(4-((3-methyl-4-((1-methyl-1H-benzo[d]imidazol-5-yl)oxy)phenyl)amino)quinazolin-6-yl)pyrrolidin-2-one] | 1140 | 18.5 | 15.8
C=C1C(=O)N(c2ccc3ncnc(Nc4ccc(Cc5ccn6ncnc6c5)c(C)c4)c3c2)C[C@H]1C [Compound 36, (S)-1-(4-((4-([1,2,4]triazolo[1,5-a]pyridin-7-ylmethyl)-3-methylphenyl)amino)quinazolin-6-yl)-4-methyl-3-methylenepyrrolidin-2-one] | 2330 | 40.9 | 80.5
C=C1C(=O)N(c2ccc3ncnc(Nc4ccc(Oc5ccc6c(c5)ncn6C)c(C)c4)c3c2)C[C@H]1C [Compound 37, (S)-4-methyl-1-(4-((3-methyl-4-((1-methyl-1H-benzo [d]imidazol-5-yl)oxy)phenyl)amino)quinazolin-6-yl)-3-methylenepyrrolidin-2-one] | 1020 | 26.9 | 17.4
Cc1cc(Nc2ncnc3ccc(N4CC/C(=C\CN(C)C)C4=O)nc23)ccc1Oc1ccc2c(c1)ncn2C [Compound 38, (3E)-3-[2-(dimethylamino)ethylidene]-1-[4-({3-methyl-4-[(1-methyl-1,3-benzodiazol-5-yl)oxy]phenyl}amino)pyrido[3,2-d]pyrimidin-6-yl]pyrrolidin-2-one] | 407 | 29.3 | 2
C=C1CCN(c2cc3c(Nc4ccc(Oc5ccc6c(c5)ncn6C)c(C)c4)ncnc3cn2)C1=O [Compound 39, 1-(4-((3-methyl-4-((1-methyl-1H-benzo[d]imidazol-5-yl)oxy)phenyl)amino)pyrido[3,4-d]pyrimidin-6-yl)-3-methylenepyrrolidin-2-one] | 497 | 36.2 | 14.6
Cc1cc(Nc2ncnc3ccc(N4CC/C(=C\CCN5CCN(C)CC5)C4=O)cc23)ccc1Oc1ccn2ncnc2c1 [Compound 40, (3E)-1-{4-[(3-methyl-4-{[1,2,4]triazolo[1,5-a]pyridin-7-yloxy}phenyl)amino]quinazolin-6-yl}-3-[3-(4-methylpiperazin-1-yl)propylidene]pyrrolidin-2-one] | > 10000 | 30.7 | > 500
C=C1C(=O)N(c2ccc3ncnc(Nc4ccc(Oc5ccc6c(c5)ncn6C)c(C)c4)c3c2)C[C@@H]1C [Compound 41, (R)-4-methyl-1-(4-((3-methyl-4-((1-methyl-1H-benzo[d]imidazol-5-yl)oxy)phenyl)amino)quinazolin-6-yl)-3-methylenepyrrolidin-2-one] | 4490 | 29 | 29
Cc1cc(Nc2ncnc3ccc(N4CC/C(=C\CCN(C)C)C4=O)cc23)ccc1Oc1ccc2c(c1)ncn2C [Compound 44, (3E)-3-[3-(dimethylamino)propylidene]-1-[4-({3-methyl-4-[(1-methyl-1,3-benzodiazol-5-yl)oxy]phenyl}amino)quinazolin-6-yl]pyrrolidin-2-one] | 1940 | 26.2 | 14.5
Cc1cc(Nc2ncnc3cnc(N4CC/C(=C\CN(C)C)C4=O)cc23)ccc1Oc1ccc2c(c1)ncn2C [Compound 45, (E)-3-(2-(dimethylamino)ethylidene)-1-(4-((3-methyl-4-((1-methyl-1H-benzo[d]imidazol-5-yl)oxy)phenyl)amino)pyrido[3,4-d]pyrimidin-6-yl)pyrrolidin-2-one] | 670 | 22.6 | 1.79
C=C1CCN(c2ccc3ncnc(Nc4ccc(Oc5ccc6nccnc6c5)c(C)c4)c3c2)C1=O [Compound 46, 1-(4-((3-methyl-4-(quinoxalin-6-yloxy)phenyl)amino)quinazolin-6-yl)-3-methylenepyrrolidin-2-one] | 759 | 65.1 | 53.9

Second part, led by results:

IC50 [2] [nM] | IC50 [3] [nM] | SMILES | GI50 [1] [nM]
2220 | 28.9 | Cc1cc(Nc2ncnc3ccc(N4CC/C(=C\CN(C)C)C4=O)nc23)ccc1Oc1ccn2ncnc2c1 [Compound 47, (E)-1-(4-((4-([1,2,4]triazolo[1,5-a]pyridin-7-yloxy)-3-methylphenyl)amino)pyrido[3,2-d]pyrimidin-6-yl)-3-(2-(dimethylamino)ethylidene)pyrrolidin-2-one] | 4.08
63.5 | 12.4 | Cc1cc(Nc2ncnc3ccc(N4CC/C(=C\CCN(C)C)C4=O)nc23)ccc1Oc1ccn2ncnc2c1 [Compound 48, (3E)-3-[3-(dimethylamino)propylidene]-1-{4-[(3-methyl-4-{[1,2,4]triazolo[1,5-a]pyridin-7-yloxy}phenyl)amino]pyrido[3,2-d]pyrimidin-6-yl}pyrrolidin-2-one] | 0.837
173 | 13.9 | Cc1ccc(Oc2ccc(Nc3ncnc4ccc(N5CC/C(=C\CN(C)C)C5=O)nc34)cc2C)cn1 [Compound 49, (E)-3-(2-(dimethylamino)ethylidene)-1-(4-((3-methyl-4-((6-methylpyridin-3-yl)oxy)phenyl)amino)pyrido[3,2-d]pyrimidin-6-yl)pyrrolidin-2-one] | 0.999
2150 | 80.1 | C=C1CCN(c2ccc3ncnc(Nc4ccc(Oc5ccc6cncnc6c5)c(C)c4)c3c2)C1=O [Compound 50, 1-(4-{[3-methyl-4-(quinazolin-7-yloxy)phenyl]amino}quinazolin-6-yl)-3-methylidenepyrrolidin-2-one] | 46.4
> 10000 | 81.2 | C=C1CCN(c2ccc3ncnc(Nc4ccc(Cc5ccc6c(c5)ncn6C)c(C)c4)c3c2)C1=O [Compound 52, 1-[4-({3-methyl-4-[(1-methyl-1,3-benzodiazol-5-yl)methyl]phenyl}amino)quinazolin-6-yl]-3-methylidenepyrrolidin-2-one] | 21.9
76 | 35.6 | Cc1cc(Nc2ncnc3ccc(N4CC/C(=C\CCN(C)C)C4=O)nc23)ccc1Oc1ccc2c(c1)ncn2C [Compound 53, (3E)-3-[3-(dimethylamino)propylidene]-1-[4-({3-methyl-4-[(1-methyl-1,3-benzodiazol-5-yl)oxy]phenyl}amino)pyrido[3,2-d]pyrimidin-6-yl]pyrrolidin-2-one] | 2.05
1540 | 42 | Cc1cc(Nc2ncnc3ccc(N4CC/C(=C\CN(C)C)C4=O)nc23)ccc1Cc1ccc2c(c1)ncn2C [Compound 54, (3E)-3-[2-(dimethylamino)ethylidene]-1-[4-({3-methyl-4-[(1-methyl-1,3-benzodiazol-5-yl)methyl]phenyl}amino)pyrido[3,2-d]pyrimidin-6-yl]pyrrolidin-2-one] | 5.37
